Laboratory results as given in patent US12533310B2, “Fragrance or flavor composition” (Takasago International Corporation, priority 2019, dated 2026).
One block for each molecule: values may come before it.

Experiments:
[1] = biological target: T1, OR2C1 (Homo sapiens, UniProt O95371); test: Suppressive effect of offensive odor-suppressing materials on the response of OR2C1; format: cell-based; conditions: for suppressive effect on the response of OR2C1 to 1-octen-3-one: mixed at various concentrations with 30 μM 1-octen-3-one, response without material set to 100, FIGS. 7 and 8; for suppressive effect on the response of OR2C1 to trans-2-nonenal: mixed at various concentrations with 60 μM trans-2-nonenal, FIGS. 9 and 10; for suppressing the response of OR2C1: odorous substance not stated
T1 construct: N-terminal 20 amino acid residues of bovine rhodopsin (Rho tag); expressed in transfected cells; host or cells: HEK293T
T1 sequence (O95371 1-312): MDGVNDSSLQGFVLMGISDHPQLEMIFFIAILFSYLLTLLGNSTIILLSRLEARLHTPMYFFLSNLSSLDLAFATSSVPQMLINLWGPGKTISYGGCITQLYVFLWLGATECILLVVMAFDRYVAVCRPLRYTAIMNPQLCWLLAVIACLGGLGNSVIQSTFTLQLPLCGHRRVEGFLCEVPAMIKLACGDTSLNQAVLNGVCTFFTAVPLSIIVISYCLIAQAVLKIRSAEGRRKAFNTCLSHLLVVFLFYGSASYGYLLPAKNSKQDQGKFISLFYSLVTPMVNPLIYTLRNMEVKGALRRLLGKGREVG
Protocol: (§1) After removal of the culture solutions, an odorous substance serving as an analyte, which had been prepared at a given concentration with CD293 (gibco) medium (supplemented with […] L-glutamine), was added in 50 μL volumes to stimulate the cells for 3 hours, followed by luciferase activity measurement in accordance with the usage of a Dual-Luciferase Reporter Assay System (Promega). The response intensity of each olfactory receptor polypeptide was expressed as a fold increase value, which was determined by dividing the luciferase activity generated upon stimulation with the odorous substance by the luciferase activity generated in a test system not containing the odorous substance.
According to the same procedure as shown in Example 1, offensive odor-suppressing materials 2-methyl-4-(2,2,3-trimethylcyclopent-3-enyl)but-2-en-1-ol (also known as 2-methyl-4-(2,2,3-trimethyl-3-cyclopentenyl)-2-buten-1-ol) (Hindinol®) and 1-(2,2,6-trimethylcyclohexyl)hexan-3-ol (Dextramber®) were each mixed at various concentrations with 30 μM 1-octen-3-one, and the cells engineered to express OR2C1 were used to measure the response of this receptor to 1-octen-3-one. The ratio of the fold increase value obtained in the test using the offensive odor-suppressing materials was determined assuming that the fold increase value obtained in the test without mixing the offensive odor-suppressing materials was set to 100.
According to the same procedure as shown in Example 5, offensive odor-suppressing materials 2-methyl-4-(2,2,3-trimethylcyclopent-3-enyl)but-2-en-1-ol (Hindinol®) and 1-(2,2,6-trimethylcyclohexyl)hexan-3-ol (Dextramber®) were each mixed at various concentrations with 60 μM trans-2-nonenal, and the cells engineered to express OR2C1 were used to measure the response of this receptor to trans-2-nonenal.

[2] = Sensory testing of offensive odor intensity, single offensive odors (Example 7); parameters: species or system human; conditions: for Offensive odor intensity 1,5-Octadien-3-ol: 1,5-octadien-3-ol diluted 100-fold with triethyl citrate; for Offensive odor intensity 1,5-Octadien-3-ol / Offensive odor intensity 1,5-Octadien-3-one / Offensive odor intensity 1-Octen-3-ol / Offensive odor intensity 1-Octen-3-one / Offensive odor intensity Trans-2-nonenal / Offensive odor intensity Trans-2-octenal: 10 μl, test substance 1 μl, odor alone set to 8, scale 0 to 10, mean of 10 panelists; for Offensive odor intensity 1,5-Octadien-3-one: 1,5-octadien-3-one diluted 1000-fold with triethyl citrate; for Offensive odor intensity 1-Octen-3-ol: 1-octen-3-ol diluted 100-fold with triethyl citrate; for Offensive odor intensity 1-Octen-3-one: 1-octen-3-one diluted 100-fold with triethyl citrate; for suppressive effect on offensive odors (each offensive odor of Example 7): summary in words for all six offensive odors; for Offensive odor intensity Trans-2-nonenal: trans-2-nonenal diluted 1000-fold with triethyl citrate; for Offensive odor intensity Trans-2-octenal: trans-2-octenal diluted 1000-fold with triethyl citrate
Description: Test substances having inhibitory activity on receptor activity were confirmed for their ability to suppress offensive odors by sensory testing. As offensive odors, trans-2-nonenal diluted 1000-fold with triethyl citrate, trans-2-octenal diluted 1000-fold with triethyl citrate, 1-octen-3-one diluted 100-fold with triethyl citrate, 1,5-octadien-3-one diluted 1000-fold with triethyl citrate, 1-octen-3-ol diluted 100-fold with triethyl citrate, and 1,5-octadien-3-ol diluted 100-fold with triethyl citrate were each added dropwise separately in a volume of 10 μl and a test substance was added dropwise in a volume of 1 μl to a cotton ball, which was then enclosed in a plastic bottle (OZO-40, Takemoto Yohki Co., Ltd., Japan). Each bottle was allowed to stand for 1 hour at room temperature to fully volatilize odor molecules in the bottle. Sensory testing was made by 10 panelists assuming that the odor intensity was set to 8 for each offensive odor when added dropwise alone, whereby the offensive odor intensity when a test substance was mixed was evaluated between 0 and 10. The resulting numerical values were used to calculate their mean value.

[3] = Sensory testing of offensive odor intensity, model odors (Example 8); parameters: species or system human
Protocol: These fragrance compositions 1 to 48 were confirmed for their ability to suppress offensive odors by sensory testing. As offensive odors, the model age-related body odor, the model underarm odor and the model musty odor indicated in Tables 8 to 10 below were each diluted 100-fold and added dropwise separately in a volume of […] and fragrance compositions 1 to 48 were each added dropwise separately in a volume of 1 μl as a test substance to a cotton ball, which was then enclosed in a plastic bottle (OZO-40, Takemoto Yohki Co., Ltd., Japan). Each bottle was allowed to stand for 1 hour at room temperature to fully volatilize odor molecules in the bottle. Sensory testing was made by 10 panelists assuming that the odor intensity was set to 8 for each offensive odor when added dropwise alone, whereby the offensive odor intensity when a test substance was mixed was evaluated between 0 and 10. The resulting numerical values were used to calculate their mean value.

[4] = biological target: T2, human olfactory receptor OR2C1 (Homo sapiens, UniProt O95371); test: Luciferase reporter gene assay, response of OR2C1 to odorous substances; format: cell-based; conditions: various concentrations; cells stimulated 3 hours; FIGS. 1 and 3
T2 construct: N-terminal 20 amino acid residues of bovine rhodopsin (Rho tag); expressed in transfected cells; host or cells: HEK293T
T2 sequence (O95371 1-312): T1 sequence (O95371 1-312)
Description: Human olfactory receptor genes were obtained by PCR cloning with Human Genomic DNA: Female (Promega) on the basis of their sequence information registered in GenBank. Into pME18S vectors, the N-terminal 20 amino acid residues of bovine rhodopsin were integrated and the resulting human olfactory receptor genes were integrated respectively downstream thereof to obtain human olfactory receptor gene expression vectors. […]
as §1, with “substance. […]” for “substance.”

[5] = biological target: T3, human olfactory receptor OR4Q3 (Homo sapiens, UniProt Q8NH05); test: Luciferase reporter gene assay, response of OR4Q3 to odorous substances; format: cell-based; conditions: various concentrations; cells stimulated 3 hours; FIGS. 2, 4, 5, 6
T3 construct: N-terminal 20 amino acid residues of bovine rhodopsin (Rho tag); expressed in transfected cells; host or cells: HEK293T
T3 sequence (Q8NH05 1-313): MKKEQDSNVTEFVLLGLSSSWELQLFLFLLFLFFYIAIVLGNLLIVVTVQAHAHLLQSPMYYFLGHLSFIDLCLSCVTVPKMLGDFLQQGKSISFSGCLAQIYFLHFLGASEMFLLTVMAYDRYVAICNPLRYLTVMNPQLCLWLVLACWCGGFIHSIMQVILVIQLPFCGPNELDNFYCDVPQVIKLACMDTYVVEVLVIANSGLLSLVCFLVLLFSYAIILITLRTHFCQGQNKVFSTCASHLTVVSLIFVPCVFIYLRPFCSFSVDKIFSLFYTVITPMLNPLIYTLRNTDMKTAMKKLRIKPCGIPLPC
Protocol: Human olfactory receptor genes were obtained by PCR cloning with Human Genomic DNA: Female (Promega) on the basis of their sequence information registered in GenBank. Into pME18S vectors, the N-terminal 20 amino acid residues of bovine rhodopsin were integrated and the resulting human olfactory receptor genes were integrated respectively downstream thereof to obtain human olfactory receptor gene expression vectors.
(§2) Each human olfactory receptor gene expression vector (0.05 μg), RTP1S vector (0.01 μg), firefly luciferase vector pGL4.29 containing a cAMP response element promoter (Promega, 0.01 μg) and Renilla luciferase vector pGL4.74 containing a thymidine kinase promoter (Promega, 0.005 μg) were dissolved in 10 μL of Opti-MEMI (gibco) to give a gene solution (for one well). HEK293T cells were seeded in 100 μL volumes into 96-well plates (Biocoat, Corning) at a cell density reaching confluence after 24 hours, and the gene solutions were added to the respective wells to cause gene transfer into the cells by lipofection techniques in accordance with the usage of Lipofectamine 3000, followed by culture at 37° C. under a 5% carbon dioxide atmosphere for 24 hours.
as §1
(§3) The cells engineered to express human olfactory receptors OR2C1 and OR4Q3 were used to measure the response of these receptors to various concentrations of 1-octen-3-one by the luciferase reporter gene assay.
According to the same procedure as shown in Example 1, the cells engineered to express human olfactory receptors OR2C1 and OR4Q3 were used to measure the response of these receptors to various concentrations of 1,5-octadien-3-one by the luciferase reporter gene assay.
According to the same procedure as shown in Example 1, the cells engineered to express human olfactory receptor OR4Q3 were used to measure the response of this receptor to various concentrations of 1-octen-3-ol by the luciferase reporter gene assay. […]

[6] = tested on: cells not engineered to express the olfactory receptors; test: Mock test of the luciferase reporter gene assay; format: cell-based, human
Protocol: as §2, §1, §3

[7] = biological target: T4, olfactory receptor OR2W1 (Homo sapiens, UniProt Q9Y3N9); conditions: background art; cited from earlier work
T4 sequence (Q9Y3N9 1-320): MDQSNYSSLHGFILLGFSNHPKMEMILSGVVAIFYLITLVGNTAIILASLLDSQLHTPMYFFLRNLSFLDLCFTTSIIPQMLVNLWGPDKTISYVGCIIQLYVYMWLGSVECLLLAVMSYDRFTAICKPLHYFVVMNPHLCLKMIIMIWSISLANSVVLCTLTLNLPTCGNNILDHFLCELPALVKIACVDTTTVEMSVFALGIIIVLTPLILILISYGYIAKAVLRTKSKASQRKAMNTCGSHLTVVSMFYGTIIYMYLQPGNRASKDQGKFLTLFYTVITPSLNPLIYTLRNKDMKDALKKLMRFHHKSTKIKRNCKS

suppressing the response of OR2C1 [1]: suppressing the response of OR2C1
Compound: CCCC(O)CCC1C(C)CCCC1(C)C (stereo not shown) [Dextramber, 1-(2,2,6-trimethylcyclohexyl)hexan-3-ol]
suppressive effect on the response of OR2C1 to 1-octen-3-one [1]: reducing the response of OR2C1 to 1-octen-3-one in a concentration-dependent manner
suppressive effect on the response of OR2C1 to trans-2-nonenal [1]: reducing the response of OR2C1 to trans-2-nonenal in a concentration-dependent manner
Offensive odor intensity 1,5-Octadien-3-ol [2]: 1.9
Offensive odor intensity 1,5-Octadien-3-one [2]: 2.6
Offensive odor intensity 1-Octen-3-ol [2]: 2.0
Offensive odor intensity 1-Octen-3-one [2]: 2.3
suppressive effect on offensive odors (each offensive odor of Example 7) [2]: found to suppress each offensive odor
Offensive odor intensity Trans-2-nonenal [2]: 2.8
Offensive odor intensity Trans-2-octenal [2]: 2.2
suppressive effect on offensive odors (each model odor of Example 8) ([3]; summary in words for the model odors): found to suppress each offensive odor

Compound: C=CC(=O)CCCCC [1-octen-3-one]
response of olfactory receptor OR2C1 to the odorous substance (fold increase value) [4]: respond to 1-octen-3-one in a concentration-dependent manner
response of olfactory receptor OR4Q3 to the odorous substance (fold increase value) [5]: respond to 1-octen-3-one in a concentration-dependent manner
response in Mock test [6]: no response was observed in a Mock test

Compound: C=CC(O)CC=CCC (stereo not shown) [1,5-octadien-3-ol]
response of olfactory receptor OR4Q3 to the odorous substance (fold increase value) [5]: respond to 1,5-octadien-3-ol in a concentration-dependent manner
response in Mock test [6]: no response was observed in a Mock test

Compound: CC(=CCC1CC=C(C)C1(C)C)CO (stereo not shown) [Hindinol, 2-methyl-4-(2,2,3-trimethylcyclopent-3-enyl)but-2-en-1-ol]
suppressive effect on the response of OR2C1 to 1-octen-3-one [1]: reducing the response of OR2C1 to 1-octen-3-one in a concentration-dependent manner
suppressive effect on the response of OR2C1 to trans-2-nonenal [1]: reducing the response of OR2C1 to trans-2-nonenal in a concentration-dependent manner
Offensive odor intensity Model age-related body odor ([3]; model odor of Table 8 diluted 100-fold, fragrance composition 1 μl, odor alone set to 8, scale 0 to 10, mean of 10 panelists): suppress the intensity of the model age-related body odor and the model underarm odor
Offensive odor intensity Model underarm odor ([3]; model odor of Table 9 diluted 100-fold, fragrance composition 1 μl, odor alone set to 8, scale 0 to 10, mean of 10 panelists): suppress the intensity of the model age-related body odor and the model underarm odor

Compound: C=CC(=O)CC=CCC [1,5-octadien-3-one]
response of olfactory receptor OR2C1 to the odorous substance (fold increase value) [4]: respond to 1,5-octadien-3-one in a concentration-dependent manner
response of olfactory receptor OR4Q3 to the odorous substance (fold increase value) [5]: respond to 1,5-octadien-3-one in a concentration-dependent manner
response in Mock test [6]: no response was observed in a Mock test

Compound: CCCCCC(=O)O [hexanoic acid]
response of olfactory receptor OR2W1 [7]: responds to hexanoic acid

Compound: O=C(OCc1ccccc1)c1ccccc1O [Benzyl salicylate, reference compound]
Offensive odor intensity 1,5-Octadien-3-ol [2]: 6.5
Offensive odor intensity 1,5-Octadien-3-one [2]: 7.8
Offensive odor intensity 1-Octen-3-ol [2]: 7.0
Offensive odor intensity 1-Octen-3-one [2]: 7.5
Offensive odor intensity Trans-2-nonenal [2]: 7.9
Offensive odor intensity Trans-2-octenal [2]: 7.5

Compound: C=CC(O)CCCCC (stereo not shown) [1-octen-3-ol]
response of olfactory receptor OR4Q3 to the odorous substance (fold increase value) [5]: respond to 1-octen-3-ol in a concentration-dependent manner
response in Mock test [6]: no response was observed in a Mock test

suppressing the response of OR2C1 [1]: suppressing the response of OR2C1
Compound: O=C1CCCCCCCCCCCC(=O)OCCO1 [MUSK T, 1,4-dioxacycloheptadecane-5,17-dione]
Offensive odor intensity 1,5-Octadien-3-ol [2]: 3.0
Offensive odor intensity 1,5-Octadien-3-one [2]: 3.2
Offensive odor intensity 1-Octen-3-ol [2]: 3.2
Offensive odor intensity 1-Octen-3-one [2]: 2.8
suppressive effect on offensive odors (each offensive odor of Example 7) [2]: found to suppress each offensive odor
Offensive odor intensity Trans-2-nonenal [2]: 2.9
Offensive odor intensity Trans-2-octenal [2]: 2.9
